Measurements from US6737383B1, “Herbicidal oxadiazolidines” (priority 1999, dated 2004).

Key:
corn = assay: Test B pre/postemergence corn; type: in vivo, Zea mays
Outline: (§1)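 Herbicidal effect was estimated by eye on a ten-point control scale after plants spent twelve to sixteen days in a greenhouse following soil or foliar treatment. Foliar sprays targeted plants at one to four leaves; all doses were formulated in a non-phytotoxic solvent with surfactant.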

rice = assay: Test B flood test rice; type: in vivo, Oryza sativa
Outline: (§2)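 Flood test on plants grown to the 2-leaf stage; treated plants kept in greenhouse twelve to sixteen days, then visually rated against controls on a 0 (no effect) to 10 (complete control) scale.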

bedstraw = assay: Test B pre/postemergence bedstraw; type: in vivo, Galium aparine
Outline: as §1

soybean = assay: Test B pre/postemergence soybean; type: in vivo, Glycine max
Outline: as §1

wheat = assay: Test B pre/postemergence wheat; type: in vivo, Triticum aestivum
Outline: as §1

morningglory = assay: Test B pre/postemergence morningglory; type: in vivo, Ipomoea hederacea
Outline: as §1

surinam grass = assay: Test B pre/postemergence surinam grass; type: in vivo, Brachiaria decumbens
Outline: as §1

bamyardgrass = assay: Test B flood test barnyardgrass; type: in vivo, Echinochloa crus-galli
Outline: as §2

velvetleaf = assay: Test B pre/postemergence velvetleaf; type: in vivo, Abutilon theophrasti
Outline: as §1

crabgrass = assay: Test B pre/postemergence crabgrass; type: in vivo, Digitaria sanguinalis
Outline: as §1

cocklebur = assay: Test B pre/postemergence cocklebur; type: in vivo, Xanthium strumarium
Outline: as §1

pigweed = assay: Test B pre/postemergence pigweed; type: in vivo, Amaranthus retroflexus
Outline: as §1

wild oat = assay: Test B pre/postemergence wild oat; type: in vivo, Avena fatua
Outline: as §1

giant foxtail = assay: Test B pre/postemergence giant foxtail; type: in vivo, Setaria faberii
Outline: as §1

blackgrass = assay: Test B pre/postemergence blackgrass; type: in vivo, Alopecurus myosuroides
Outline: as §1

smallflower flatsedge = assay: Test B flood test smallflower flatsedge; type: in vivo, Cyperus difformis
Outline: as §2

[1] = Postemergence, Rate 62 g/ha, scale 0 to 10, 0 is no effect, 10 is complete control
[2] = Postemergence, Rate 125 g/ha, scale of 0 to 10 where 0 is no effect and 10 is complete control
[3] = Postemergence, Rate 250 g/ha, scale of 0 to 10, 0 is no effect, 10 is complete control
[4] = Postemergence, Rate 500 g/ha, scale of 0 to 10 where 0 is no effect and 10 is complete control
[5] = Preemergence, Rate 62 g/ha, scale 0 to 10 (0 no effect, 10 complete control)
[6] = Preemergence, Rate 125 g/ha, scale of 0 to 10 where 0 is no effect and 10 is complete control
[7] = Preemergence, Rate 500 g/ha, scale of 0 to 10 where 0 is no effect and 10 is complete control
[8] = Rate 62 g/ha, flood test species, Pre-emergence, visual evaluation after twelve to sixteen days
[9] = Rate 125 g/ha, under heading Pre-emergence, flood test species, visual evaluation after twelve to sixteen days
[10] = Rate 250 g/ha, Pre-emergence (flood test species), scale 0 to 10, 0 is no effect, 10 is complete control
[11] = Rate 500 g/ha, Pre-emergence section of Table B, 0 to 10 scale (0 no effect, 10 complete control)

CCC(C)n1c(=O)on(C(=O)N(c2ccccc2)C(C)C)c1=O (stereo not drawn) [Compound 611]
Plant response rating, Corn (corn; [1]): 0 | Plant response rating, Corn (corn; [2]): 0 | Corn plant response rating (corn; [3]): 4 | Plant response rating, Corn (corn; [4]): 6 | Corn plant response rating (corn; [5]): 2 | Corn plant response rating (corn; [6]): 3 | Corn plant response rating (0 to 10 scale) (corn; Preemergence, Rate 250 g/ha): 9 | Plant response rating, Corn (corn; [7]): 9 | Plant response rating, Rice (0 to 10 scale, 0 is no effect, 10 is complete control) (rice; [8]): 0 | Rice plant response rating (0 to 10 scale, 0 is no effect, 10 is complete control) (rice; [9]): 0 | Rice plant response rating (rice; [10]): 0 | Rice plant response rating (rice; [11]): 2 | Bedstraw plant response rating (bedstraw; [3]): 6 | Plant response rating, Bedstraw (bedstraw; [4]): 9 | Bedstraw plant response rating (bedstraw; [5]): 1 | Bedstraw plant response rating (bedstraw; [6]): 1 | Bedstraw plant response rating (bedstraw; [7]): 10 | Plant response rating, Soybean (soybean; [1]): 5 | Plant response rating, Soybean (soybean; [2]): 7 | Soybean plant response rating (soybean; [3]): 8 | Plant response rating, Soybean (soybean; [4]): 8 | Soybean plant response rating (soybean; [5]): 2 | Soybean plant response rating (soybean; [6]): 2 | Plant response rating, Soybean (soybean; [7]): 7 | Plant response rating, Wheat (wheat; [1]): 0 | Plant response rating, Wheat (wheat; [2]): 0 | Wheat plant response rating (wheat; [3]): 2 | Plant response rating, Wheat (wheat; [4]): 8 | Wheat plant response rating (wheat; [5]): 1 | Wheat plant response rating (wheat; [6]): 3 | Plant response rating, Wheat (wheat; [7]): 7 | Plant response rating, Morningglory (morningglory; [1]): 7 | Plant response rating, Morningglory (morningglory; [2]): 8 | Morningglory plant response rating (morningglory; [3]): 8 | Plant response rating, Morningglory (morningglory; [4]): 8 | Morningglory plant response rating (morningglory; [5]): 0 | Morningglory plant response rating (morningglory; [6]): 0 | Plant response rating, Morningglory (morningglory; [7]): 6 | Plant response rating, B. signalgrass (surinam grass; [1]): 0 | Plant response rating, B. signalgrass (surinam grass; [2]): 3 | B. signalgrass plant response rating (surinam grass; [3]): 7 | Plant response rating, B. signalgrass (surinam grass; [4]): 8 | B. signalgrass plant response rating (surinam grass; [5]): 7 | B. signalgrass plant response rating (surinam grass; [6]): 7 | B. signalgrass plant response rating (0 to 10 scale, 0 is no effect, 10 is complete control) (surinam grass; Preemergence, Rate 250 g/ha): 10 | B. signalgrass plant response rating (surinam grass; [7]): 10 | Plant response rating, Barnyardgrass (0 to 10 scale, 0 is no effect, 10 is complete control) (bamyardgrass; [8]): 0 | Barnyardgrass plant response rating (0 to 10 scale, 0 is no effect, 10 is complete control) (bamyardgrass; [9]): 0 | Barnyardgrass plant response rating (bamyardgrass; [10]): 0 | Barnyardgrass plant response rating (bamyardgrass; [11]): 5 | Plant response rating, Velvetleaf (velvetleaf; [1]): 0 | Plant response rating, Velvetleaf (velvetleaf; [2]): 3 | Velvetleaf plant response rating (velvetleaf; [3]): 5 | Plant response rating, Velvetleaf (velvetleaf; [4]): 5 | Velvetleaf plant response rating (velvetleaf; [5]): 6 | Velvetleaf plant response rating (velvetleaf; [6]): 6 | Plant response rating, Velvetleaf (velvetleaf; [7]): 8 | Plant response rating, Crabgrass (crabgrass; [1]): 8 | Plant response rating, Crabgrass (crabgrass; [2]): 8 | Crabgrass plant response rating (crabgrass; [3]): 9 | Plant response rating, Crabgrass (crabgrass; [4]): 9 | Crabgrass plant response rating (crabgrass; [5]): 9 | Crabgrass plant response rating (crabgrass; [6]): 10 | Plant response rating, Crabgrass (crabgrass; [7]): 10 | Plant response rating, Cocklebur (cocklebur; [1]): 0 | Plant response rating, Cocklebur (cocklebur; [2]): 2 | Cocklebur plant response rating (cocklebur; [3]): 2 | Plant response rating, Cocklebur (cocklebur; [4]): 3 | Cocklebur plant response rating (cocklebur; [5]): 0 | Cocklebur plant response rating (cocklebur; [6]): 0 | Cocklebur plant response rating (0 to 10 scale) (cocklebur; Preemergence, Rate 250 g/ha): 0 | Plant response rating, Cocklebur (cocklebur; [7]): 1 | Plant response rating, Redroot pigweed (pigweed; [1]): 0 | Plant response rating, Redroot pigweed (pigweed; [2]): 2 | Redroot pigweed plant response rating (pigweed; [3]): 3 | Plant response rating, Redroot pigweed (pigweed; [4]): 8 | Redroot pigweed plant response rating (pigweed; [5]): 6 | Redroot pigweed plant response rating (pigweed; [6]): 8 | Plant response rating, Redroot pigweed (pigweed; [7]): 10 | Plant response rating, Wild oats (wild oat; [1]): 0 | Plant response rating, Wild oats (wild oat; [2]): 2 | Wild oats plant response rating (wild oat; [3]): 4 | Plant response rating, Wild oats (wild oat; [4]): 7 | Wild oats plant response rating (wild oat; [5]): 5 | Wild oats plant response rating (wild oat; [6]): 7 | Plant response rating, Wild oats (wild oat; [7]): 8 | Plant response rating, Giant foxtail (giant foxtail; [1]): 8 | Plant response rating, Giant foxtail (giant foxtail; [2]): 8 | Giant foxtail plant response rating (giant foxtail; [3]): 9 | Plant response rating, Giant foxtail (giant foxtail; [4]): 9 | Giant foxtail plant response rating (giant foxtail; [5]): 10 | Giant foxtail plant response rating (giant foxtail; [6]): 10 | Plant response rating, Giant foxtail (giant foxtail; [7]): 10 | Plant response rating, Blackgrass (blackgrass; [1]): 7 | Plant response rating, Blackgrass (blackgrass; [2]): 9 | Blackgrass plant response rating (blackgrass; [3]): 9 | Plant response rating, Blackgrass (blackgrass; [4]): 9 | Blackgrass plant response rating (blackgrass; [5]): 9 | Blackgrass plant response rating (blackgrass; [6]): 9 | Blackgrass plant response rating (0 to 10 scale) (blackgrass; Preemergence, Rate 250 g/ha): 10 | Blackgrass plant response rating (blackgrass; [7]): 10 | Plant response rating, S. Flatsedge (0 to 10 scale, 0 is no effect, 10 is complete control) (smallflower flatsedge; [8]): 0 | S. Flatsedge plant response rating (0 to 10 scale, 0 is no effect, 10 is complete control) (smallflower flatsedge; [9]): 0 | S. Flatsedge plant response rating (smallflower flatsedge; [10]): 0 | S. Flatsedge plant response rating (smallflower flatsedge; [11]): 0
